Earlier results on 1 molecule are cited in PubChem BioAssay AID1259409 (Chemical Carcinogenesis Research Information System (CCRIS), 2018).

The subject of the data set is rodent chemically induced tumor inhibition, incidence and multiplicity. The data set is described as follows: CCRIS tumor inhibitor studies. To be noted: Route [Inhibitor]: ORAL, Species: HAMSTER, Promoter: NONE USED.

Regarding `CC1=C(/C=C/C(C)=C/C=C/C(C)=C\C(=O)O)C(C)(C)CCC1`, the “tumour outcome (control, treated, inhibition, significance)” value (Carcinogen: N-NITROBIS(2-OXOPROPYL)AMINE, 60559-38-4, Dose [Inhibitor]: 0.4 OR 0.8 MMOL/KG DIET DAILY STARTING 1 WK AFTER CARCINOGEN TREATMENT AND CONTINUING THROUGH THE END OF THE STUDY (STUD, Strain/Sex: SYRIAN/FEMALE, Target Tissue: Type of Lesion: PANCREAS: DUCTULAR ADENOMA, Dose [Carcinogen]: 40 MG/KG BW ONCE) is 12/20 (60%), 7/14 (50%), 17%, not significant; the “tumour outcome (control, treated, inhibition, significance)” value (Carcinogen: N-NITROBIS(2-OXOPROPYL)AMINE, 60559-38-4, Dose [Inhibitor]: 0.4 OR 0.8 MMOL/KG DIET DAILY STARTING 1 WK AFTER CARCINOGEN TREATMENT AND CONTINUING THROUGH THE END OF THE STUDY (STUD, Strain/Sex: SYRIAN/FEMALE, Target Tissue: Type of Lesion: PANCREAS: DUCTULAR CARCINOMA, Dose [Carcinogen]: 10 MG/KG BW ONCE) was 6/23 (27%), 3/23 (13%), 52%, not significant; the “tumour outcome (control, treated, inhibition, significance)” value (Carcinogen: N-NITROBIS(2-OXOPROPYL)AMINE, 60559-38-4, Dose [Inhibitor]: 0.4 OR 0.8 MMOL/KG DIET DAILY STARTING 1 WK AFTER CARCINOGEN TREATMENT AND CONTINUING THROUGH THE END OF THE STUDY (STUD, Strain/Sex: SYRIAN/FEMALE, Target Tissue: Type of Lesion: PANCREAS: DUCTULAR CARCINOMA, Dose [Carcinogen]: 40 MG/KG BW ONCE) is 6/20 (30%), 9/14 (64%), -113%, not significant; the “tumour outcome (control, treated, inhibition, significance)” value (Carcinogen: N-NITROBIS(2-OXOPROPYL)AMINE, 60559-38-4, Dose [Inhibitor]: 0.4 OR 0.8 MMOL/KG DIET DAILY STARTING 1 WK AFTER CARCINOGEN TREATMENT AND CONTINUING THROUGH THE END OF THE STUDY (STUD, Strain/Sex: SYRIAN/MALE, Target Tissue: Type of Lesion: PANCREAS: DUCTULAR CARCINOMA, Dose [Carcinogen]: 40 MG/KG BW ONCE) is recorded as 5/24 (21%), 9/24 (38%), -81%, not significant; the “tumour outcome (control, treated, inhibition, significance)” value (Carcinogen: N-NITROBIS(2-OXOPROPYL)AMINE, 60559-38-4, Dose [Inhibitor]: 0.4 OR 0.8 MMOL/KG/D IN DIET STARTING 1 WK AFTER CARCINOGEN TREATMENT AND CONTINUING THROUGH THE END OF THE STUDY (STUDY, Strain/Sex: SYRIAN/MALE, Target Tissue: Type of Lesion: LIVER: BENIGN TUMOR, Dose [Carcinogen]: 40 MG/KG BW ONCE) was 21%, 48%, -129%, not significant; the “tumour outcome (control, treated, inhibition, significance)” value (Carcinogen: N-NITROBIS(2-OXOPROPYL)AMINE, 60559-38-4, Dose [Inhibitor]: 0.4 OR 0.8 MMOL/KG/D IN DIET STARTING 1 WK AFTER CARCINOGEN TREATMENT AND CONTINUING THROUGH THE END OF THE STUDY (STUDY, Strain/Sex: SYRIAN/MALE, Target Tissue: Type of Lesion: PANCREAS: DUCTULAR ADENOMA, Dose [Carcinogen]: 10 MG/KG BW ONCE) is given as 3/22 (14%), 20/36 (56%), -300%, p<0.05. Further, the “tumour outcome (control, treated, inhibition, significance)” value is, setting by setting: (Carcinogen: N-NITROBIS(2-OXOPROPYL)AMINE, 60559-38-4, Dose [Inhibitor]: 0.4 OR 0.8 MMOL/KG/D IN DIET STARTING 1 WK AFTER CARCINOGEN TREATMENT AND CONTINUING THROUGH THE END OF THE STUDY (STUDY, Strain/Sex: SYRIAN/MALE, Target Tissue: Type of Lesion: PANCREAS: DUCTULAR CARCINOMA, Dose [Carcinogen]: 10 MG/KG BW ONCE) 4/22 (18%), 8/36 (22%), -22%, not significant; (Carcinogen: N-NITROBIS(2-OXOPROPYL)AMINE, 60559-38-4, Dose [Inhibitor]: 0.5 OR 1.0 MMOL/KG/D IN DIET STARTING 1 WK AFTER CARCINOGEN TREATMENT AND CONTINUING THROUGH THE END OF THE STUDY (STUDY, Strain/Sex: SYRIAN/FEMALE, Target Tissue: Type of Lesion: PANCREAS: DUCTULAR ADENOMA, Dose [Carcinogen]: 10 MG/KG BW ONCE) 5/23 (22%), 9/23 (39%), -77%, not significant; (Carcinogen: N-NITROBIS(2-OXOPROPYL)AMINE, 60559-38-4, Dose [Inhibitor]: 0.5 OR 1.0 MMOL/KG/D IN DIET STARTING 1 WK AFTER CARCINOGEN TREATMENT AND CONTINUING THROUGH THE END OF THE STUDY (STUDY, Strain/Sex: SYRIAN/FEMALE, Target Tissue: Type of Lesion: PANCREAS: DUCTULAR CARCINOMA, Dose [Carcinogen]: 10 MG/KG BW ONCE) 6/23 (27%), 3/23 (13%), 52%, not significant; (Carcinogen: N-NITROSOBIS(2-OXYPROPYL)AMINE, 60599-38-4, Dose [Inhibitor]: 0.05, 0.1 OR 0.2 MILLIMOLAR/KG DIET FOR 32 WK STARTING 1 WK AFTER THE CARCINOGEN DOSE (STUDY DURATION: 33 WK), Strain/Sex: SYRIAN/FEMALE, Target Tissue: Type of Lesion: LUNG: ADENOMA, Dose [Carcinogen]: 40 MG/KG ONCE) 3/10 (30%), 6/26 (23%), 23%, not significant; (Carcinogen: N-NITROSOBIS(2-OXYPROPYL)AMINE, 60599-38-4, Dose [Inhibitor]: 0.05, 0.1 OR 0.2 MILLIMOLAR/KG DIET FOR 32 WK STARTING 1 WK AFTER THE CARCINOGEN DOSE (STUDY DURATION: 33 WK), Strain/Sex: SYRIAN/MALE, Target Tissue: Type of Lesion: COMMON DUCT: ADENOMA, Dose [Carcinogen]: 40 MG/KG ONCE) 4/12 (33%), 17/29 (59%), -78%, not significant; (Carcinogen: N-NITROSOBIS(2-OXYPROPYL)AMINE, 60599-38-4, Dose [Inhibitor]: 0.05, 0.1 OR 0.2 MILLIMOLAR/KG DIET FOR 32 WK STARTING 1 WK AFTER THE CARCINOGEN DOSE (STUDY DURATION: 33 WK), Strain/Sex: SYRIAN/MALE, Target Tissue: Type of Lesion: GALL BLADDER: ADENOMA, Dose [Carcinogen]: 40 MG/KG ONCE) 3/12 (25%), 12/29 (41%), -64%, not significant. Besides, the “tumour outcome (control, treated, inhibition, significance)” value is, setting by setting: (Carcinogen: N-NITROSOBIS(2-OXYPROPYL)AMINE, 60599-38-4, Dose [Inhibitor]: 0.05, 0.1 OR 0.2 MILLIMOLAR/KG DIET FOR 32 WK STARTING 1 WK AFTER THE CARCINOGEN DOSE (STUDY DURATION: 33 WK), Strain/Sex: SYRIAN/MALE, Target Tissue: Type of Lesion: LIVER: ADENOMA, Dose [Carcinogen]: 40 MG/KG ONCE) 50%, 41%, 18%, not significant; (Carcinogen: N-NITROSOBIS(2-OXYPROPYL)AMINE, 60599-38-4, Dose [Inhibitor]: 0.05, 0.1 OR 0.2 MILLIMOLAR/KG DIET FOR 32 WK STARTING 1 WK AFTER THE CARCINOGEN DOSE (STUDY DURATION: 33 WK), Strain/Sex: SYRIAN/MALE, Target Tissue: Type of Lesion: LUNG: ADENOMA, Dose [Carcinogen]: 40 MG/KG ONCE) 1/12 (8%), 2/29 (3%), 63%, not significant; (Carcinogen: N-NITROSOBIS(2-OXYPROPYL)AMINE, 60599-38-4, Dose [Inhibitor]: 0.05, 0.1 OR 0.2 MILLIMOLAR/KG DIET FOR 32 WK STARTING 1 WK AFTER THE CARCINOGENDOSE (STUDY DURATION: 33 WK), Strain/Sex: SYRIAN/FEMALE, Target Tissue: Type of Lesion: COMMON DUCT: ADENOMA, Dose [Carcinogen]: 40 MG/KG ONCE) 4/10 (40%), 11/26 (42%), -5%, not significant; (Carcinogen: N-NITROSOBIS(2-OXYPROPYL)AMINE, 60599-38-4, Dose [Inhibitor]: 0.05, 0.1 OR 0.2 MILLIMOLAR/KG DIET FOR 32 WK STARTING 1 WK AFTER THE CARCINOGENDOSE (STUDY DURATION: 33 WK), Strain/Sex: SYRIAN/FEMALE, Target Tissue: Type of Lesion: GALL BLADDER: ADENOMA, Dose [Carcinogen]: 40 MG/KG ONCE) 6/10 (60%), 2/26 (18%), 70%, not significant; (Carcinogen: N-NITROSOBIS(2-OXYPROPYL)AMINE, 60599-38-4, Dose [Inhibitor]: 0.05, 0.1 OR 0.2 MILLIMOLAR/KG DIET FOR 32 WK STARTING 1 WK AFTER THE CARCINOGENDOSE (STUDY DURATION: 33 WK), Strain/Sex: SYRIAN/FEMALE, Target Tissue: Type of Lesion: LIVER : ADENOMA, Dose [Carcinogen]: 40 MG/KG ONCE) 6/10 (60%), 10/26 (39%), 35%, not significant; (Carcinogen: N-NITROSOBIS(2-OXYPROPYL)AMINE, 60599-38-4, Dose [Inhibitor]: 0.05, 0.1 OR 0.2 MILLIMOLAR/KG DIET FOR 32 WK STARTING 1 WK AFTER THE CARCINOGENDOSE (STUDY DURATION: 33 WK), Strain/Sex: SYRIAN/FEMALE, Target Tissue: Type of Lesion: PANCREAS: ADENOMA, Dose [Carcinogen]: 40 MG/KG ONCE) 10/10 (100%), 26/26 (100%), 0%, not significant. In addition, the “tumour outcome (control, treated, inhibition, significance)” value (Carcinogen: N-NITROSOBIS(2-OXYPROPYL)AMINE, 60599-38-4, Dose [Inhibitor]: 0.05, 0.1 OR 0.2 MILLIMOLAR/KG DIET FOR 32 WK STARTING 1 WK AFTER THE CARCINOGENDOSE (STUDY DURATION: 33 WK), Strain/Sex: SYRIAN/FEMALE, Target Tissue: Type of Lesion: PANCREAS: CARCINOMA, Dose [Carcinogen]: 40 MG/KG ONCE) is given as 4/10 (40%), 14/26 (54%), -35%, not significant; the “tumour outcome (control, treated, inhibition, significance)” value (Carcinogen: N-NITROSOBIS(2-OXYPROPYL)AMINE, 60599-38-4, Dose [Inhibitor]: 0.05, 0.1 OR 0.2 MILLIMOLAR/KG DIET FOR 32 WK STARTING 1 WK AFTER THE CARCINOGENDOSE (STUDY DURATION: 33 WK), Strain/Sex: SYRIAN/MALE, Target Tissue: Type of Lesion: PANCREAS: ADENOMA, Dose [Carcinogen]: 40 MG/KG ONCE) is reported as 12/12 (100%), 29/29 (100%), 0%, not significant; the “tumour outcome (control, treated, inhibition, significance)” value (Carcinogen: N-NITROSOBIS(2-OXYPROPYL)AMINE, 60599-38-4, Dose [Inhibitor]: 0.05, 0.1 OR 0.2 MILLIMOLAR/KG DIET FOR 32 WK STARTING 1 WK AFTER THE CARCINOGENDOSE (STUDY DURATION: 33 WK), Strain/Sex: SYRIAN/MALE, Target Tissue: Type of Lesion: PANCREAS: CARCINOMA, Dose [Carcinogen]: 40 MG/KG ONCE) is on record as 6/12 (50%), 12/29 (41%), 18%, not significant.
